Patent US11866430B2, “Naphthyridinone compounds useful as T cell activators” (priority 2018, dated 2024)
Read-outs that look alike come from different tables or passages of the source.

Tests used:
human DGKα = human DGKα (Homo sapiens (Human), UniProt P23743); assay: DGKα LIPGLO assay (extruded liposome substrate); format: biochemical
How it was run: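 Human full-length DGKα, His-tagged and produced in Sf9 cells, assayed at 20 nM (4× stock) on extruded liposomes of PS, 0.25 mM DAG and 2.75 mM PC, preincubated 10 min. Reaction started with 300 μM ATP (stock) and ran 1 h in MOPS pH 7.5/MgCl2/CaCl2/DTT buffer.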

human DGKζ = human DGKζ (Homo sapiens (Human), UniProt Q13574); assay: DGKζ assay (detergent/lipid micelle substrate); format: biochemical
Chain of human DGKζ (Q13574 other isoform, or with tags, fused parts or gaps): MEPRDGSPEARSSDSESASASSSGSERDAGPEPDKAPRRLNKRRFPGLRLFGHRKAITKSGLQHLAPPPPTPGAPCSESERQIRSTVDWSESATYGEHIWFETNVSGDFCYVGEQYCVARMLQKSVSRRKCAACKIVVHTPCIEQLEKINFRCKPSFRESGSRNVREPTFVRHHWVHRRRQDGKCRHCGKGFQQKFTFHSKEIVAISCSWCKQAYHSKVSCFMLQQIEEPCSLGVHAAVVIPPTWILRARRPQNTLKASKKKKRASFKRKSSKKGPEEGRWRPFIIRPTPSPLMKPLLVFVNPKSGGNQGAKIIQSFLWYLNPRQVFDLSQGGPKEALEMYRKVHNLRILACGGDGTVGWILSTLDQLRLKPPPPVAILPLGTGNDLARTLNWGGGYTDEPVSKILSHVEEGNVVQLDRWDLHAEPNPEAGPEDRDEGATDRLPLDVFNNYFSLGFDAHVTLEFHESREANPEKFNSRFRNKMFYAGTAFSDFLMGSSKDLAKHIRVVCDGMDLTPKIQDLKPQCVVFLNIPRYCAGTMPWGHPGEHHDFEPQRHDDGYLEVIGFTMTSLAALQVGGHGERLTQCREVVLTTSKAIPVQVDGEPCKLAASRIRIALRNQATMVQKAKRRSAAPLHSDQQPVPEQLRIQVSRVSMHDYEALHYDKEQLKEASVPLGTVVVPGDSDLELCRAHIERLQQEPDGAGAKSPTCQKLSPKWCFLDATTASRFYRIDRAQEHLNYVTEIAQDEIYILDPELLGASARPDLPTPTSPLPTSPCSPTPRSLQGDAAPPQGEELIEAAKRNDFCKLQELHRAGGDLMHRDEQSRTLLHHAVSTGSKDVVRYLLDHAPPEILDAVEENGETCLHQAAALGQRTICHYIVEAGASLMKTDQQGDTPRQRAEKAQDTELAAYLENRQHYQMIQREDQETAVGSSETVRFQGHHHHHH
How it was run: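 Full-length human DGKα or DGKζ (C-terminal His tag, Sf9-expressed; 20 nM 4× stock) was preincubated 10 min at room temperature with PS/DAG octyl glucoside micelles in MOPS pH 7.5 buffer with MgCl2, CaCl2 and DTT. It was then started with ATP (300 uM addition) and run for 1 hr, with ADP-Glo luminescence read-out.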

[1] = system: OT-1 antigen-specific CD8+ T cells with MC38 tumor cells; assay: Murine Cytotoxic T Lymphocyte Assay (IFN-γ); format: cell-based, mouse
[2] = detergent/lipid micelle substrate, read-out: DGKζ IC50
[3] = Mus musculus, MC-38, read-out: msCTL INF-γ IC50, murine CTL IFN-γ (table title reads INF-γ Whole Blood Normalized Agonist EC50)
[4] = DGKζ IC50, detergent/lipid micelle substrate
[5] = read-out: msCTL INF-γ IC50, murine CTL IFN-γ (table title reads INF-γ Whole Blood Normalized Agonist EC50)

Chain of human DGKα (P23743 other isoform, or with tags, fused parts or gaps): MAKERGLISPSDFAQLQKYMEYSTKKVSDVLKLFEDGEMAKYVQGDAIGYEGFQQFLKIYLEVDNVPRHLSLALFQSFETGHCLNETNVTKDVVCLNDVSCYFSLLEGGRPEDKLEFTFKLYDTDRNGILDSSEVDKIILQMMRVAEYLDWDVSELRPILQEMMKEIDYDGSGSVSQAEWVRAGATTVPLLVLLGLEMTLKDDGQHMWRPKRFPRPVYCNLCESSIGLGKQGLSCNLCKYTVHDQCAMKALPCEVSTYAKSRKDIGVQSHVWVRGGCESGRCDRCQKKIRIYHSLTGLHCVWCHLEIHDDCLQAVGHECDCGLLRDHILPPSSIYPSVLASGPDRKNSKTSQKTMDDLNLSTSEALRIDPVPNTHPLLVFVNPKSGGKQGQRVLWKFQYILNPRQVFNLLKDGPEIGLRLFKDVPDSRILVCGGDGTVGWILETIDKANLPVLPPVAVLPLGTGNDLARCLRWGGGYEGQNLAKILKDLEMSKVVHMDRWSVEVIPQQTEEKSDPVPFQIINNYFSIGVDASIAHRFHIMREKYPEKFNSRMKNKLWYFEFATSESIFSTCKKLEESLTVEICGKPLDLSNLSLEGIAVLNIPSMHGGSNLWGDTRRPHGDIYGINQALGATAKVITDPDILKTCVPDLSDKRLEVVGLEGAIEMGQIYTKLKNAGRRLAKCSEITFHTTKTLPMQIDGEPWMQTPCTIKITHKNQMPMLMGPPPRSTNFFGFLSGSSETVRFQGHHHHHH

| Structure (SMILES) | IC50 (human DGKα) | IC50 (human DGKζ; [2]) | IC50 [1, 3] | IC50 (human DGKζ; [4]) | IC50 [1, 5] |
| --- | --- | --- | --- | --- | --- |
| CC(c1ccc(F)cc1)N1CCN(c2c([N+](=O)[O-])c(=O)n(C)c3ccc(C#N)nc23)CC1 (single isomer, unassigned) [Example 44, 8-(4-(1-(4-fluorophenyl)ethyl)piperazin-1-yl)-5-methyl-7-nitro-6-oxo-5,6-dihydro-1,5-naphthyridine-2-carbonitrile] | 0.37 µM | 8.9 µM | 0.13 µM | – | – |
| C#CCn1c(=O)c([N+](=O)[O-])c(N2CCN(C(c3ccc(F)cc3)C3CC3)CC2)c2nc(C#N)ccc21 (single isomer, unassigned) [Example 143, 8-(4-(cyclopropyl(4-fluorophenyl)methyl)piperazin-1-yl)-7-nitro-6-oxo-5-(prop-2-yn-1-yl)-5,6-dihydro-1,5-naphthyridine-2-carbonitrile] | 3.4 µM | 4.2 µM | 1.41 µM | – | – |
| Cn1c(=O)c(C#N)c(N2CCN(Cc3cccc4ccccc34)CC2)c2nc(C#N)ccc21 [Example 404, 5-methyl-8-{4-[(naphthalen-1-yl)methyl]piperazin-1-yl}-6-oxo-5,6-dihydro-1,5-naphthyridine-2,7-dicarbonitrile] | 4.9 µM | 63 µM | 9.84 µM | – | – |
| Cn1c(=O)c([N+](=O)[O-])c(N2CCN(CC(O)c3ccc(F)cc3)CC2)c2nc(C#N)ccc21 (stereo not drawn) [Example 36, 8-{4-[2-(4-fluorophenyl)-2-hydroxyethyl]piperazin-1-yl}-5-methyl-7-nitro-6-oxo-5,6-dihydro-1,5-naphthyridine-2-carbonitrile] | 6.8 µM | 68 µM | 10 µM | – | – |
| Cc1ccc2c(n1)c(N1CCN(Cc3cccc(Cl)c3O)CC1)c(C#N)c(=O)n2C [Example 389, 4-{4-[(3-chloro-2-hydroxyphenyl)methyl]piperazin-1-yl}-1,6-dimethyl-2-oxo-1,2-dihydro-1,5-naphthyridine-3-carbonitrile] | 1.4 µM | 130 µM | 5.05 µM | – | – |
| C#CCn1c(=O)c([N+](=O)[O-])c(N2CCN(C(C)c3ccc(F)cc3)CC2)c2nc(C#N)ccc21 (single isomer, unassigned) [Example 136, 8-(4-(1-(4-fluorophenyl)ethyl)piperazin-1-yl)-7-nitro-6-oxo-5-(prop-2-yn-1-yl)-5,6-dihydro-1,5-naphthyridine-2-carbonitrile] | 0.79 µM | – | – | 0.87 µM | 0.09 µM |
| Cc1ccc(CN2CCN(c3c(C#N)c(=O)n(C)c4ccc(Br)nc34)CC2)c(O)c1 [Example 372, 6-bromo-4-{4-[(2-hydroxy-4-methylphenyl)methyl]piperazin-1-yl}-1-methyl-2-oxo-1,2-dihydro-1,5-naphthyridine-3-carbonitrile] | 0.078 µM | 60 µM | 2.55 µM | – | – |
| COc1cc(F)ccc1C(c1ccc(F)cc1)N1CCN(c2c(C#N)c(=O)n(C)c3ccc(Br)nc23)CC1 (single isomer, unassigned) [Example 17, 6-bromo-4-{4-[(4-fluoro-2-methoxyphenyl)(4-fluorophenyl)methyl]piperazin-1-yl}-1-methyl-2-oxo-1,2-dihydro-1,5-naphthyridine-3-carbonitrile] | 3.5 µM | 180 µM | 0.19 µM | – | – |
| Cc1ccc(CN2CCN(c3c(C#N)c(=O)n(C)c4ccc(Cl)nc34)CC2)c(F)c1 [Example 423, 6-chloro-4-{4-[(2-fluoro-4-methylphenyl)methyl]piperazin-1-yl}-1-methyl-2-oxo-1,2-dihydro-1,5-naphthyridine-3-carbonitrile] | 2.2 µM | > 81 µM | 0.7 µM | – | – |
| C#CCn1c(=O)c([N+](=O)[O-])c(N2CCN(C(C)c3ccc(F)cc3)CC2)c2nc(C#N)ccc21 (single isomer, unassigned) [Example 137, 8-(4-(1-(4-fluorophenyl)ethyl)piperazin-1-yl)-7-nitro-6-oxo-5-(prop-2-yn-1-yl)-5,6-dihydro-1,5-naphthyridine-2-carbonitrile] | 1.5 µM | – | – | 4.8 µM | 0.23 µM |
